The assay concerns MT-1 breast cancer cells. The assay is described as follows: Symptom free survival of nude rats inoculated with MT-1 breast cancer cells (treatment efficacy against skeletal metastases). The format is in vivo, nude rats (Han: rnu/rnu Rowett). Particulars: for increase in survival relative to the control: Wilcoxon rank sum test.
The mark [1] stands for this setting: Without Aredia, 300 kBq/ka ^223Ra (regimen A).

Experimental: The effect of ^223Ra in prolonging symptom free survival of rate was studied for two treatment regimens [A] comparative and [B] according to the invention.
Treatment regimen [A]: Animals were treated seven days after tumor cell inoculation. At this time animal body weights varied between 80 and 110 grams and animals were randomized in groups so the average weight for a group was about 100 g at the time of treatment. The treatment groups received 11 or 30 kBq of ^223Ra administered by tail vein injection while animals in the control group were injected with an equivalent volume of 5 mM sodium citrate solution.
Treatment regimen [B]: 3-Amino-1-hydroxypropylidene bisphosphonate, di-sodium salt (Aredia™, Novartis AG, Switzerland), was added as a supplemental treatment to ^223Ra. Animals in the treatment groups were treated on day 7 after tumor cell inoculation with 10 or 30 kBq of ^223Ra. The following day, 1.5 mg/kg b.w. of Aredia™, was administered by i.v. injection. Animals in the control group received 5 mM sodium citrate solution on day 7 and 1.5 mg/kg b.w. of Aredia™ on day 8.
Symptom free animals were followed for at least 50 days after the treatment. The significance of treatment response was related to symptom free survival and evaluated using the Wilcoxon rank sum test.

On to `[223Ra]` [^223Ra, radium-223], for which the “survival improvement compared to the control group” value (60 kBq ^223Ra, regimen A) is recorded as “not significant”. Where the note is “60 kBq ^223Ra, regimen A (1/5)”, this molecule gave a symptom free survivors of 20%. Besides, for the setting “100 kBq/kg ^223Ra, regimen A (5/14)”, the “symptom free survivors beyond 50 days” value was found to be 36%. Besides, the “increase in survival relative to the control” value reads like this: (100 kBq/kg ^223Ra, regimen A) “significant at the 1% level”; (300 kBq/kg ^223Ra, regimen A) “significant at the 1% level”. In addition, the “increase in survival compared to the control group, groups taken together” value (100 kBq/kg and 300 kBq/kg ^223Ra groups taken together, regimen A, P <0.05) is listed as “significant”. The “Survival beyond 67 day” value reads like this: (Without Aredia, 100 kBq/kg ^223Ra (regimen A)) 33%; under setting [1], 0%. In addition, the “Mean survival” value reads like this: (Without Aredia, 100 kBq/kg ^223Ra i.v. day 7 after tumor cell inoculation (regimen A)) 38 days; (Without Aredia, 300 kBq/ka ^223Ra i.v. day 7 (regimen A)) 38 days. Besides, the Survival range under setting [1] is 27-61.
